Source: patent publication US6759399B1, “Use of antimineralocorticoid compounds against narcotic withdrawal syndrome” (Aventis Pharma S.A., priority 1995, dated 2004)
“And” between values parts separate entries of the source, which are not always exact repeats. Equal entries are not always repeated.

Key:
[1] = tested on: morphinic withdrawal syndrome induced by naloxone in mice; test: Withdrawal syndrome induced by naloxone in mice treated with morphine (jumping test); conditions: for % protection: relative to the morphine group
[2] = tested on: self-administration of cocaine in rats; test: Dependence induced by cocaine: self-administration of cocaine in trained rats; type: in vivo; conditions: 1 hour before session
Description: The anti-mineralocorticoid product AM2 was tested on 5 rats which were trained in the self-administration of cocaine during daily periods of one hour.
These rats were pre-treated 1 hour before the start of the self-administration sessions.
The product AM2 dissolved in a saline solution was administered by intra-peritoneal route. The doses range from 10 to 100 mg/kg.

[3] = antimineralocorticoid alone 4 × 10 mg/kg p.o., no morphine, naloxone 100 mg/kg i.p.
[4] = antimineralocorticoid alone 4 × 20 mg/kg p.o., no morphine, naloxone 100 mg/kg i.p.
[5] = morphine 799 mg/kg s.c. + antimineralocorticoid 4 × 10 mg/kg p.o., naloxone 100 mg/kg i.p.
[6] = morphine 799 mg/kg s.c. + antimineralocorticoid 4 × 10 mg/kg p.o.
[7] = morphine 799 mg/kg s.c. + antimineralocorticoid 4 × 20 mg/kg p.o., naloxone 100 mg/kg i.p.
[8] = morphine 799 mg/kg s.c. + antimineralocorticoid 4 × 20 mg/kg p.o.

| SMILES | Number of jumps/10 minutes (m ± sem) ([1]; morphine alone 799 mg/kg s.c. (cumulative over 4 days), naloxone 100 mg/kg i.p. on day 4) | Number of jumps/10 minutes (m ± sem) [1, 3] [jumps/10 minutes] | Number of jumps/10 minutes (m ± sem) [1, 4] [jumps/10 minutes] | Number of jumps/10 minutes (m ± sem) [1, 5] [jumps/10 minutes] | % protection [1, 6] [%] | Number of jumps/10 minutes (m ± sem) [1, 7] [jumps/10 minutes] | % protection [1, 8] [%] | Number of jumps/10 minutes (m ± sem) ([1]; antimineralocorticoid alone 4 × 50 mg/kg p.o., no morphine, naloxone 100 mg/kg i.p.) [jumps/10 minutes] | Number of jumps/10 minutes (m ± sem) ([1]; morphine 799 mg/kg s.c. + antimineralocorticoid 4 × 50 mg/kg p.o., naloxone 100 mg/kg i.p.) [jumps/10 minutes] | % protection ([1]; morphine 799 mg/kg s.c. + antimineralocorticoid 4 × 50 mg/kg p.o.) [%] | effect on the self-administration of cocaine ([2]; pre-treatment with 10 or 20 mg/kg intra-peritoneal) | effect on the self-administration of cocaine ([2]; pre-treatment with 50 or 75 mg/kg intra-peritoneal) |
| --- | --- | --- | --- | --- | --- | --- | --- | --- | --- | --- | --- | --- |
| CN1CC[C@]23c4c5ccc(O)c4O[C@H]2[C@@H](O)C=C[C@H]3[C@H]1C5 [Morphine, morphine] | 114 ± 8 jumps/10 minutes and 76 ± 15 jumps/10 minutes and 102 ± 10 jumps/10 minutes and 99 ± 13 jumps/10 minutes |  |  |  |  |  |  |  |  |  |  |  |
| CC(=O)S[C@@H]1CC2=CC(=O)CC[C@]2(C)[C@H]2CC[C@@]3(C)[C@@H](CC[C@@]34CCC(=O)O4)[C@H]12 [AM1, γ-lactone of 7α-acetylthio-17β-hydroxy-3-oxo-17α-pregn-4-ene-21-carboxylic acid] |  | 3 ± 2 | 11 ± 4 | 51 ± 7 | −33 | 77 ± 8 | −32 |  |  |  |  |  |
| CCC[C@@H]1CC2=CC(=O)CC[C@]2(C)[C@H]2CC[C@@]3(C)[C@@H](CC[C@@]3(O)CCC(=O)[O-])[C@H]12.[K+] [AM2, potassium 17β-hydroxy 3-oxo 7α-propyl-(17α)-pregn-4-ene-21-carboxylate] |  | 2 ± 2 | 4 ± 4 | 76 ± 16 | −25 | 51 ± 8 | −48 | 3 ± 2 | 61 ± 8 | −40 | little or no effect | significant reduction |
